How the values were obtained:
Cannabinoid receptor 2 = Cannabinoid receptor 2 (Mus musculus, UniProt P47936); assay: Inhibition of [3H]CP-55940 binding to cannabinoid receptor 2 of mouse spleen membranes; type: tissue-based
Cannabinoid receptor 1 = Cannabinoid receptor 1 (Rattus norvegicus, UniProt P20272); assay: Inhibition of [3H]CP-55940 binding to cannabinoid receptor 1 of rat brain
Rattus norvegicus [1] = assay: In vivo cannabinergic activity in rat after 90 min of dose administration (0.03-1.8 mg/kg) using drug discrimination assay; type: functional
Rattus norvegicus [2] = assay: In vivo cannabinergic activity in rat after 30 min of dose administration (0.03-1.8 mg/kg) using drug discrimination assay; type: functional; conditions: 0.5 h

Cannabinoid receptor 2, sequence (P47936 whole entry): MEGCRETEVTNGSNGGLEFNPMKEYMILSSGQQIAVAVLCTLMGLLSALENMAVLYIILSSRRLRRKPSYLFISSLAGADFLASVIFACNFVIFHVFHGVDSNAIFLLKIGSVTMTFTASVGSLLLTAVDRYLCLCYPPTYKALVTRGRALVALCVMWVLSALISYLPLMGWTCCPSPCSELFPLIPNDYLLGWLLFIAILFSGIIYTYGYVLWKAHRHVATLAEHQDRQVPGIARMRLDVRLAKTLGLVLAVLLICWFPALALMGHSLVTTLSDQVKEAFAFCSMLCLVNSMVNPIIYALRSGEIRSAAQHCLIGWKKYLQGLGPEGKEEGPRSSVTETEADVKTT
Cannabinoid receptor 1, sequence (P20272 whole entry): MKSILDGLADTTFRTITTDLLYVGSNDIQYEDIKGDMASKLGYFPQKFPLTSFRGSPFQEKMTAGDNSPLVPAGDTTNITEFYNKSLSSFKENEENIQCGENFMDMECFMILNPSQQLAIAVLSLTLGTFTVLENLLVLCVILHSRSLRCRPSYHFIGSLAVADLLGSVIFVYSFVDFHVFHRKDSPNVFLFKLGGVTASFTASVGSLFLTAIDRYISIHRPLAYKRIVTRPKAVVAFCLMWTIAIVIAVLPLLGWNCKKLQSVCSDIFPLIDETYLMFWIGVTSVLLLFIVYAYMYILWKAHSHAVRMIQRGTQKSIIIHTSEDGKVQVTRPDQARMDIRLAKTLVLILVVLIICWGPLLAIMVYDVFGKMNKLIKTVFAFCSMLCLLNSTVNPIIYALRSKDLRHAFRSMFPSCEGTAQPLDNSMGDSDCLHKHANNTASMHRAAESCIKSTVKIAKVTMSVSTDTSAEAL

SMILES	Ki (Cannabinoid receptor 2) [nM]	Ki (Cannabinoid receptor 1) [nM]	ED50 (Rattus norvegicus [1]) [mg/kg]	ED50 (Rattus norvegicus [1]; Rattus norvegicus, 1.5 h, read-out: ED50) [mg/kg]	ED50 (Rattus norvegicus [2]) [mg/kg]
CC1=CC[C@@H]2[C@@H](C1)c1c(O)cc(CC3C4CC5CC(C4)CC3C5)cc1OC2(C)C (stereo partly drawn)	76	79.7			
CC1=CC[C@@H]2[C@@H](C1)c1c(O)cc(C3C4CC5CC(C4)CC3C5)cc1OC2(C)C (stereo partly drawn)	14	34.9			
CC1=CC[C@@H]2[C@@H](C1)c1c(O)cc(C=C3C4CC5CC(C4)CC3C5)cc1OC2(C)C	8.9	48.6			
CC1=CC[C@@H]2[C@@H](C1)c1c(O)cc(CC34CC5CC(CC(C5)C3)C4)cc1OC2(C)C	26.9	29.3			
CC1=CC[C@@H]2[C@@H](C1)c1c(O)cc(C34CC5CC(CC(C5)C3)C4)cc1OC2(C)C	52	6.8	0.41	0.44	0.68
